Values joined by “and” are separate entries in the source; they are usually repeats but may differ in a detail not shown here. Identical values can stand only once.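 Five compound concentrations were applied to cells in 96-well plates for 48 hours; endpoints were derived by simple linear interpolation of the resulting dose-response curve. The concentration for 50% growth inhibition is given as GI50. TGI: concentration producing complete growth inhibition.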
Columns and labels:
Test in all cases: NCI anticancer screen, dose series, 48 h
DU-145 prostate = system: DU-145 prostate
HS 578T breast = system: HS 578T breast
MDA-MB-435 = system: MDA-MB-435
NCI/ADR-RES ovarian = system: NCI/ADR-RES ovarian
PC-3 prostate = system: PC-3 prostate

SMILES | TGI (DU-145 prostate) | TGI (HS 578T breast) | TGI (MDA-MB-435) | TGI (NCI/ADR-RES ovarian) | TGI (PC-3 prostate) | GI50 (MDA-MB-435) | GI50 (PC-3 prostate) | GI50 (DU-145 prostate) | GI50 (HS 578T breast) | GI50 (NCI/ADR-RES ovarian)
COc1ccc(-c2oc3c(OC)c(OC)c(OC)c(O)c3c(=O)c2OC)cc1OC | > 100 µM | 17.3 µM | 32.9 µM | > 72 µM | > 93 µM | – | – | – | – | –
COc1ccc(-c2cc(=O)c3c(C)cc(C)nc3[nH]2)cc1 | > 100 µM | > 100 µM | > 100 µM | > 100 µM | > 100 µM | 29.1 µM | 23.9 µM | – | – | –
O=C1C(c2c[nH]c3ccccc23)=C(c2c[nH]c3ccccc23)C(=O)N1O | > 25 µM | > 25 µM | > 25 µM | > 25 µM | > 25 µM | > 25 µM | > 25 µM | > 25 µM | > 19.7 µM | > 25 µM
O=CC(O)C(O)C(O)C(O)C(=O)NCCCCCCCCCCCCNC(=O)C(O)C(O)C(O)C(O)C=O (stereo not drawn) | > 100 µM | > 100 µM | > 100 µM | > 100 µM | > 100 µM | – | – | – | – | –
O=[N+]([O-])c1c(Br)cc(Br)c2c1Nc1c(ccc(Cl)c1Cl)S2 | 27.3 µM | > 100 µM | 31.5 µM | 75.1 µM | 35 µM | – | – | – | – | –
Oc1ccc(C(c2ccc(O)cc2)c2ccc(Cl)cn2)cc1 | > 100 µM | 0.0624 µM | > 86.2 µM | 0.284 µM | 0.708 µM | 23.3 µM | 0.194 µM | 1.06 µM | 0.0216 µM | 0.0512 µM
CC(=O)/C(=C/n1c(=S)[nH]c2ccccc21)C(=O)Nc1ccccc1C | > 100 µM | – | > 100 µM | > 100 µM | – | – | – | – | – | –
CCOC(=O)C1=C(C(=O)c2ccc(C)cc2)C(c2cccc([N+](=O)[O-])c2)C(C(=O)c2ccc(C)cc2)=C(C(=O)OCC)N1 | 32.2 µM | 63.9 µM | 33.2 µM | 39.2 µM | 59.9 µM | – | – | – | – | –
O=C(/C(=C\C(=O)c1cccs1)c1ccsc1)c1ccc(Br)cc1 | > 100 µM | > 100 µM | > 100 µM | > 100 µM | > 100 µM | – | – | – | – | –
COc1cc(CCN)c2c(c1OC)SSSSS2 | 1.22 µM | 5.17 µM | 3.32 µM | 3.73 µM | 2.93 µM | 1.63 µM | 1.59 µM | 0.276 µM | 2.11 µM | 1.63 µM
FC(F)(F)c1cc(-c2nnc3n2N=C(N2CCCC2)CS3)cc(C(F)(F)F)c1 | > 50 µM | > 50 µM | > 50 µM | > 50 µM | > 50 µM | > 50 µM | > 50 µM | > 50 µM | 17.9 µM | > 50 µM
CCCC(=O)Nc1cc(C(=O)N2C[C@@H]3C[C@]34C2=CC(=O)c2[nH]cc(C)c24)n(COC)c1 | 27.3 µM and 20.9 µM | 38.2 µM and 27.1 µM | 19.2 µM and 12.5 µM | 50 µM and 47.7 µM | 37.5 µM and 13.2 µM | 3.19 µM | 2.86 µM | 3.18 µM | 4.31 µM | 19.7 µM
COc1ccccc1/C=C/[N+](=O)[O-] | 3.63 µM | 8.83 µM | 10.5 µM | 11.6 µM | 6.93 µM | 2.59 µM | 2.41 µM | 1.95 µM | 2.79 µM | 2.92 µM
O=C(Nc1ccc(F)cc1)c1ccc(NC2=C(Cl)C(=O)N(Cc3ccccc3)C2=O)cc1 | 29.8 µM | 62.3 µM | 26.3 µM | > 100 µM | 22.3 µM | 7.07 µM | 7.42 µM | 6.48 µM | 13.2 µM | 53.3 µM
O=C(O)[C@@H]1[C@H](C(=O)O)[C@H](C(=O)O)C[C@@H]1C(=O)O | > 100 µM | > 100 µM | > 100 µM | > 100 µM | > 100 µM | – | – | – | – | –
Cc1c(S(C)(=O)=O)c(-c2cc(F)cc(N3CCN(c4ccc(NS(=O)(=O)c5ccc(N[C@H](CCN6CCC(C(=O)OCCCP(=O)(O)O)CC6)CSc6ccccc6)c(S(=O)(=O)C(F)(F)F)c5)cc4)CC3)c2)c(-c2ccc(Cl)cc2)n1C(C)C | > 100 µM | > 100 µM | > 100 µM | > 100 µM | > 100 µM | > 100 µM | > 100 µM | > 100 µM | > 100 µM | > 100 µM
O=C1C=C(NCCNC(=S)Nc2ccccc2)c2nccc3c2c1nc1ccccc13 | > 100 µM | > 100 µM | 47.7 µM | > 100 µM | > 100 µM | 15.6 µM | > 100 µM | 39.8 µM | > 100 µM | > 100 µM
CCc1n(Cc2ccc3ccccc3n2)cc[n+]1Cc1ccc2ccccc2n1 | 51.7 µM | 26.1 µM | 10.3 µM | > 100 µM | 10.7 µM | 0.141 µM | 0.163 µM | 1.93 µM | 1.88 µM | > 100 µM
CCCCS(=O)CCC(N)C(=O)O (stereo not drawn) | > 100 µM | > 100 µM | – | > 100 µM | > 100 µM | – | – | – | – | –
CC(=O)OCC1OC(n2c3c(c(-c4cccc5ccccc45)c(C#N)c2=S)CCCC3)C(OC(C)=O)C(OC(C)=O)C1OC(C)=O (stereo not drawn) | > 100 µM | – | > 100 µM | > 100 µM | > 100 µM | – | – | – | – | –
